Assay results published in patent US8945921B2, “Modulating the production of neurons and/or oligodendrocytes from white matter progenitor cells” (Cornell Research Foundation, Inc., priority 2003, dated 2015).

Test system: adult human white matter progenitor cells (WMPCs)
Assay: Tyrosine phosphatase inhibition: oligodendrocyte differentiation of cultured WMPCs (A2B5/O4/BrdU immunocytochemistry)
Assay type: cell-based
Protocol: WMPCs were distributed onto 12-well plates coated with poly-L-ornithine and fibronectin at 5×10^4 cells/ml in DMEM/F12/N1 supplemented with 10 ng/ml bFGF (Sigma), 10 ng/ml PDGF-AA (Sigma), and 2 ng/ml NT3 (R&D Systems). Stock solutions of 1 μM bpV(phen) (potassium bisperoxo (1,10-phenanthroline) oxovanadate (V); Calbiochem) were prepared before each use. Cells were exposed to concentrations of 0, 1, 5, 10, and 25 ng/ml of bV(phen) immediately upon plating, and every 2 days thereafter for 7 day in vitro.
Cultures were exposed continuously to 10 μg/ml BrdU beginning 24 hours before fixation. After 7 days in vitro, A2B5 and O4 were immunolabeled as previously described (Roy et al., “Identification, Isolation, and Promoter-defined Separation of Mitotic Oligodendrocyte Progenitor Cells from the Adult Human Subcortical White Matter,” J. Neurosci 19:9986-95 (1999), which is hereby incorporated by reference in its entirety). For multiple antigen labeling, O4 and A2B5 were localized on live cells that were then fixed with 4% paraformaldehyde and immunostained for BrdU. O4 supernatant was used at a dilution of 1:100 and monoclonal antibody A2B5 supernatant (clone 105, American Type Culture Collection) was used in a 1:1 ratio with DMEM/F12/N, both for 40 minutes at 4° C. Rat anti-BrdU antibody (Harlan) was used at a dilution of 1:200. Fixed cultures were counterstained with DAPI (10 ng ml; Molecular Probes). The number of A2B5 and O4 stained and unstained cells were counted in 10 randomly chosen fields at each dosage level, from individual replicate samples (n=4). Statistical significance was assessed by one-way repeated measures analysis of variance (ANOVA), followed by Tukey's multiple comparisons test (GraphPad Prism 3.0, p<0.05).
Due to the high expression of the tyrosine phosphatase receptor RTPβ/ζ in WMPCs, the effect of tyrosine phosphatase inhibition on the differentiation of WMPCs was assessed. bpV(phen), a known potent inhibitor of tyrosine phosphatase activity, was used to induce inhibition (Posner et al., “Peroxovanadium Compounds. A New Class of Potent Phosphotyrosine Phosphatase Inhibitors Which Are Insulin Mimetics,” J Biol Chem 269: 4596-4604 (1994); Bevan et al., “Selective Activation of the Rat Hepatic Endosomal Insulin Receptor Kinase. Role for the Endosome in Insulin Signaling,” J Biol Chem 270: 10784-10791 (1995); Faure et al., “Arrest at The G2/M Transition of the Cell Cycle by Protein-Tyrosine Phosphatase Inhibition Studies on a Neuronal and a Glial Cell Line,” J Cell Biochem 59: 389-401 (1995), which are hereby incorporated by reference in their entirety). […] Statistical significance was first detected at 1 ng/ml bpV(phen) in the A2B5 positive population and 10 ng ml bpV(phen) in the O4 positive population. The O4/A2B5 ratio rose drastically from under 10 percent to 70 percent in response to 25 ng/ml treatment with bpV(phen) (FIG. 1E).

[1] = 7 days in vitro, doses 0, 1, 5, 10, 25 ng/ml
[2] = between dosage levels 0-25 ng/ml, 7 days in vitro

O.O.O.OO.OO.[K+].[OH-].[V].c1cnc2c(c1)ccc1cccnc12 [bpV(phen), potassium bisperoxo (1,10-phenanthroline) oxovanadate (V)]
percentage of O4+ cells (25 ng ml, 7 days in vitro, n=4 patients, untreated 20±8.4%): 54±17.6% | percentage of progenitor A2B5+ cells (25 ng/ml, 7 days in vitro, n=4 patients, untreated 15±2.2%): 4±0.5% | O4/A2B5 ratio (25 ng/ml, 7 days in vitro, untreated under 10 percent): 70% | concentration at which statistical significance was first detected, A2B5 positive population [1]: 1 ng/mL | concentration at which statistical significance was first detected, O4 positive population [1]: 10 ng·mL | effect on WMPC expansion and differentiation (WMPCs exposed to the RTP inhibitor): ceased expansion and differentiated as oligodendrocytes | number of A2B5+ BrdU+ cells [2]: unchanged | total cell number [2]: unchanged
